For data set [1], the system named is rat liver mitochondria (inner mitochondrial membrane potential). The experiment in a line: Mitochondrial membrane potential measured by safranine O fluorescence. To be noted: for decrease of mitochondrial membrane potential: isolated rat liver mitochondria 0.4 mg/ml protein, 5 mM succinate + 1 µM rotenone, 5 nM (about 10 nanogram/ml) peptide, safranine O 10 µM, pH 7.4; for series of the uncoupling potency (relative drop in membrane potential, concentration dependence): isolated rat liver mitochondria, measured at 300 s after peptide addition, safranine O.
Method: To assess the effect of gramicidin derivatives on the mitochondrial membrane potential, we assayed the latter with the potential-dependent dye safranine O. The fluorescence of this dye (at a high concentration) is known to drop with increasing the mitochondrial membrane potential and rise upon the addition of protonophores [42], [47].
Control, no other additions. gA, [Glu1]gA, [Glu3]gA, [Lys1]gA, and [Lys3]gA show traces after the addition of 5 nM (i.e. about 10 nanogram/ml) of a corresponding peptide at t = 0 s. Trace “excess [Glu1]gA” was measured with 1 µg/ml peptide. Panel B. Dose dependence of the effect of [Glu1]gA on mitochondrial membrane potential.
Experiments were performed on outbred white male rats (180–200 g) fed ad libitum. […] Rat liver mitochondria were isolated by differential centrifugation [60] in a medium containing 250 mM sucrose, 10 mM MOPS, 1 mM EGTA, and bovine serum albumin (0.1 mg/ml), pH 7.4. The final washing was preformed in the medium of the same composition. Protein concentration was determined using bicinchoninic acid as described in [61].
Safranine O (10 µM) was used as a membrane potential probe [42]. Fluorescence intensity at 580 nm (excitation at 520 nm) was measured with a Panorama Fluorat 02 spectrofluorimeter (Lumex, Russia). The medium for measurements contained 300 mM sucrose, 20 mM MOPS, 0.5 mM EDTA, 0.5 mg/ml BSA, pH 7.4. Mitochondrial protein concentration was 0.4 mg/ml.

The test system of data set [2] is rat kidney cell culture (renal tubular epithelium cells). The format is cell-based. On the procedure:
(§1) In subsequent series of experiments, the uncoupling action of [Glu1]gA was tested in rat kidney cell culture loaded with the potential sensitive dye tetramethylrhodamine ethyl ester (TMRE). […] By contrast, the parent gA depolarized mitochondria in cells at substantially higher concentrations starting from 0.1 mg/ml (Fig. 2C). […] In particular, treatment with 50 µg/ml gA caused about 80% cell death, while [Glu1]gA provoked only about 15% cell death. […] The increased effective concentrations of the [Glu1]gA in cell culture with respect to those with isolated mitochondria (Fig. 1) could be attributed to poor peptide permeation through plasma membrane.
Confocal images of cultured renal cells loaded with TMRE in control (A) and after treatment with 0.01 mg/ml [Glu1]gA (B). Diagram (C) presents the mean intensity of TMRE fluorescence through 10 confocal images for each [Glu1]gA (solid bars) or gA (hatched bars) concentration.
Kidneys were excised aseptically from 3–7 day old rats, then homogenized and placed in balanced Hanks solution at pH 7.4. After several washes the dispensed tissue was placed in 0.1% collagenase and incubated for 20–30 min at 37°C. Large pieces were removed, and cells were sedimented by gentle centrifugation (50 g) for 3 min. The pellet was resuspended in DMEM/F-12 1:1 containing 10% fetal calf serum (FCS) and seeded in culture plates and glass-bottom dishes. Cells were cultivated in a CO2 (5%) incubator for 1–2 days before the experiments. The gA or [Glu1]gA solution was added to the cultured epithelial cells to appropriate concentration and incubated for 10 min at 37°C in DMEM/F-12 medium containing 10 mM Hepes-NaOH. Next, cells were incubated with 100 nM TMRE (Invitrogen, USA) or 1 µM Lysotracker Green (Invitrogen, USA) for 30 min followed by washing in DMEM/F-12. Then renal tubular epithelial cells were imaged with an LSM510 inverted confocal microscope (Carl Zeiss Inc., Jena, Germany). Analysis of fluorochrome incorporation was performed in glass-bottom dishes (MatTek Corp., USA) with excitation at 488 and 543 nm and emission collected at 510–530 and 560–590 nm, for Lysotracker and TMRE, correspondingly. To minimize the contribution of photo-induced mitochondria/cell damage to the relative fluorescence intensities, image analysis was performed on the average of the first four scans only. Images were processed using ImageJ software (NIH, Bethesda, MD, USA).

Data set [3] in a line: Dissipation of pH gradient in pyranine-loaded liposomes. Particulars: 2 µg/ml peptide. On the procedure: Figure 5 Dissipation of the pH gradient on membranes of pyranine-loaded liposomes by gA and [Glu1]gA (both 2 µg/ml). Inner liposomal pH was estimated from pyranine fluorescence intensity measured at 505 nm upon excitation at 455 nm. Nigericin (1 µM) was added at 400–420 s to equilibrate the pH. Control, a record without peptides.
The lumenal pH of the liposomes was assayed with pyranine as described in [11] by a slightly modified procedure of [63]. To prepare pyranine-loaded liposomes, lipids (5 mg egg yolk phosphatidylcholine and 1 mg cholesterol) in a chloroform suspension were dried in a round-bottom flask under a stream of nitrogen. The lipids were then resuspended in buffer (100 mM KCl, 20 mM MES, 20 mM MOPS, 20 mM Tricine titrated with KOH to pH 6.0) containing 0.5 mM pyranine. The suspension was vortexed and then freeze-thawed three times. Unilamellar liposomes were prepared by extrusion through 0.1-µm-pore size Nucleopore polycarbonate membranes using an Avanti Mini-Extruder. The unbound pyranine was then removed by passage through a Sephadex G-50 coarse column equilibrated with the same buffer solution. […] The pH was estimated from the intensities of fluorescence measured at 505 nm upon excitation at 455 nm, as monitored with the Panorama Fluorat 02 spectrofluorimeter. At the end of each recording, 1 µM nigericin was added to dissipate the remaining pH gradient.

Data set [4] can be described thus: Induction of electrical current across planar BLM with and without liposomes. To be noted: for effect of liposomes on induction of BLM current: liposomes 1 µg/ml DPhPC, peptide and liposomes at one side, gA 2 nanogram/ml, [Glu1]gA 200 nanogram/ml, 100 mM KCl, 10 mM Tris, 10 mM MES, pH 7.0, 50 mV. An excerpt:
The difference in efficacy of gA and [Glu1]gA described here in a variety of systems could be associated with different abilities of the peptides to redistribute between membrane structures and/or their diverse permeability through membranes. To cause a reduction of an electrical potential difference across the inner mitochondrial membrane, peptide molecules must penetrate through the outer membrane in the case of isolated mitochondria, and additionally through the plasma membrane in the case of cells. While encountering with a series of membrane structures, e.g. endosomes, on their way from the plasma to the mitochondrial membrane, peptides may undergo numerous cycles of membrane binding and desorption. To study such a process in a model system, we measured the effect of liposome addition on the time course of the induction of electrical current across a planar BLM by gA and [Glu1]gA. In these experiments we added liposomes and peptides at one side of BLM in order to mimic the addition of the peptides to mitochondria and cells.
Figure 7 Effect of liposomes (1 µg/ml DPhPC) on the induction of electrical current on planar lipid bilayer by gA (2 nanogram/ml, panel A) and [Glu1]gA (200 nanogram/ml, panel B). The peptides and liposomes were added at one side of the membrane. The solution was 100 mM KCl, 10 mM Tris, 10 mM MES, pH = 7.0, BLM voltage was 50 mV.
Planar bilayer lipid membranes (BLM) were formed from a 2% solution of diphytanoylphosphatidylcholine (DPhPC) (Avanti Polar Lipids, Alabaster, AL) in n-decane on a hole in a Teflon partition (0.5-mm diameter) separating two compartments of a cell containing aqueous buffer solutions [64].The electric current (I) was recorded under voltage-clamp conditions. […] The current measured by means of a patch-clamp amplifier (Warner Instruments, Hamden, CT, model BC-525C) was digitized using an NI-DAQmx (National Instruments, Austin, TX) and analyzed with a personal computer with the use of WinWCP Strathclyde Electrophysiology Software designed by J. Dempster (University of Strathclyde, UK).

The test system of a further data set is rat liver mitochondria. The experiment in a line: Respiration of isolated mitochondria (Clark-type oxygen electrode). To be noted: 25°C, pH 7.4, 100 nM = 200 nanogram/ml, data not shown.
Data set [5] is described as follows: Single-channel recordings on planar bilayer lipid membrane. To be noted: DPhPC/decane BLM, 100 mM HCl; for single-channel conductance: from current histograms. The method, then: Proton channels formed by gA can be observed by measuring electric current across a planar bilayer lipid membrane (BLM), if the experiments are performed in the acidic pH range [19], [20], [26], [50]. Figure 6 presents typical recordings of fluctuations of transmembrane current induced by gA and [Glu1]gA (panels A and D of Fig. 6) which were obtained under the same conditions. The single-channel conductance of [Glu1]gA (150 pS) was close to that of gA (140 pS) as judged from the current histograms (panels B and E), while the single-channel lifetime of the analogue (about 16 ms as estimated from the exponential fit to open channel duration histogram, panel F of Fig. 6) was much shorter than that of gA (116 ms, panel C).
Figure 6 Single-channel recordings (A, D) and the corresponding current histograms (B, E) of gramicidin A ([…], A, B, and C) and [Glu1]gA (2 nanogram/ml, D, E, and F) at a voltage of 100 mV applied to the DPhPC/decane membrane. The solution was 100 mM HCl. (C, F) Open state duration histograms fitted by a single exponential with a time constant of 116 ms (C) and 16 ms (F). The records were filtered at 100 Hz (A, B, and C) or 1000 Hz (D, E, and F).
Planar bilayer lipid membranes (BLM) were formed from a 2% solution of diphytanoylphosphatidylcholine (DPhPC) (Avanti Polar Lipids, Alabaster, AL) in n-decane on a hole in a Teflon partition (0.5-mm diameter) separating two compartments of a cell containing aqueous buffer solutions [64].The electric current (I) was recorded under voltage-clamp conditions. Voltage was applied to BLMs with Ag-AgCl electrodes placed directly into the cell. The current measured by means of a patch-clamp amplifier (Warner Instruments, Hamden, CT, model BC-525C) was digitized using an NI-DAQmx (National Instruments, Austin, TX) and analyzed with a personal computer with the use of WinWCP Strathclyde Electrophysiology Software designed by J. Dempster (University of Strathclyde, UK).

Data set [6] concerns lysosomes of rat kidney cells. Briefly: Lysosome integrity and pH gradient by Lysotracker Green. The format is cell-based. Particulars: 0.1 mg/ml peptide, 1 µM Lysotracker Green. The method, then:
In further experiments, we tested the interaction of [Glu1]gA with lysosomes of rat kidney cells by using the dye Lysotracker Green known to accumulate in highly acidic interior of lysosomes. […] Thus, [Glu1]gA appeared to interact specifically with mitochondrial membranes leading to their partial depolarization.
Figure 4 Micrographs of rat kidney cell culture loaded with Lysotracker Green in the absence (A), and in the presence of 0.1 mg/ml (B) of [Glu1]gA.
Kidneys were excised aseptically from 3–7 day old rats, then homogenized and placed in balanced Hanks solution at pH 7.4. After several washes the dispensed tissue was placed in 0.1% collagenase and incubated for 20–30 min at 37°C. Large pieces were removed, and cells were sedimented by gentle centrifugation (50 g) for 3 min. The pellet was resuspended in DMEM/F-12 1:1 containing 10% fetal calf serum (FCS) and seeded in culture plates and glass-bottom dishes. Cells were cultivated in a CO2 (5%) incubator for 1–2 days before the experiments. The gA or [Glu1]gA solution was added to the cultured epithelial cells to appropriate concentration and incubated for 10 min at 37°C in DMEM/F-12 medium containing 10 mM Hepes-NaOH. […] To minimize the contribution of photo-induced mitochondria/cell damage to the relative fluorescence intensities, image analysis was performed on the average of the first four scans only. […]

Data set [7] relates to cultured renal tubular cells. Briefly: MTT cell viability test. The format is cell-based. Particulars: 24 h. The method, then:
as §1
Figure 3 Viability of cultured renal cells according to the MTT test after 24 h treatment with appropriate concentration of [Glu1]gA or gA in culture medium without serum. Experiments were performed 2 times in which 10 wells per each concentration were analyzed.
Cell viability was evaluated by a widely used methyl thiazol tetrazolium (MTT) test. […] Then the dye solution was removed, 50 µl DMSO per well was added and absorbance at 540 nm was measured. Experiments were performed twice in which 10 wells per each concentration were analyzed.

Consider five substances from publication PMC3404012, “N-Terminally Glutamate-Substituted Analogue of Gramicidin A as Protonophore and Selective Mitochondrial Uncoupler” (PLoS ONE, 2012).

In the case of “HCO-EGALAVVVWLWLWLW-NH(CH2)2OH [[Glu1]gA]”, in data set [1], the “decrease of mitochondrial membrane potential” value is “most efficient in decreasing the mitochondrial membrane potential” and the “series of the uncoupling potency (relative drop in membrane potential, concentration dependence)” value is “[Glu1]gA > = gA > [Glu3]gA > [Lys3]gA > [Lys1]gA”. Moreover, in data set [2] (cells versus isolated mitochondria), the “effective concentrations in cells relative to isolated mitochondria” value is reported as “higher in cells than in mitochondria by three orders of magnitude”. In data set [2] (mitochondria in cell culture), the “depolarizing concentrations in cell culture relative to gA” value is “by an order of magnitude lower than those of gA”. Besides, the “decrease in the mitochondrial membrane potential (TMRE fluorescence)” value in data set [2] (rat kidney cell culture, 10 µg/ml (about 5 µM) peptide, 10 min at 37°C, then 100 nM TMRE 30 min) is listed as “more than a two-fold decrease”. The “depolarization of mitochondria in cells” value in data set [2] (rat kidney cells, 0.1 mg/ml peptide) is reported as “maximal depolarization of mitochondria”. Further, in data set [3], the “rate of pH gradient dissipation (enhancement of liposome-entrapped pyranine fluorescence)” value is reported as “slower than that provoked by the parent peptide gA”. Further, in data set [4], the “effect of liposomes on induction of BLM current” value is given as “accelerated many fold the induction of the current”. The “concentration required to induce current similar to that of gA, one-sided addition” value in data set [4] (planar BLM, peptide added from one side of the membrane) is reported as “about two orders of magnitude higher”. For the same substance, the “concentration stimulating mitochondrial respiration up to the level of fully uncoupled respiration” value in the data set on rat liver mitochondria is listed as “higher than 100 nM”. This substance also came in with a single-channel conductance in data set [5] (100 mV) of 150 pS. For the same substance, in data set [5] (symmetrical addition), the “concentration required to observe single channels, relative to gA” value was “much higher (approx. by two orders of magnitude)”. The “lysosome integrity and pH gradient across lysosomal membranes (Lysotracker fluorescence intensity)” value in data set [6] is “No change”.

As to “HCO-KGALAVVVWLWLWLW-NH(CH2)2OH [[Lys1]gA]”, in data set [1], the “series of the uncoupling potency (relative drop in membrane potential, concentration dependence)” value is “[Glu1]gA > = gA > [Glu3]gA > [Lys3]gA > [Lys1]gA”.

On to “HCO-VGELAVVVWLWLWLW-NH(CH2)2OH [[Glu3]gA]”, for which the “series of the uncoupling potency (relative drop in membrane potential, concentration dependence)” value in data set [1] was “[Glu1]gA > = gA > [Glu3]gA > [Lys3]gA > [Lys1]gA”.

Consider “HCO-VGKLAVVVWLWLWLW-NH(CH2)2OH [[Lys3]gA]”, for which the “series of the uncoupling potency (relative drop in membrane potential, concentration dependence)” value in data set [1] is “[Glu1]gA > = gA > [Glu3]gA > [Lys3]gA > [Lys1]gA”.

In the case of gramicidin A [gA, reference compound], in data set [1], the “decrease of mitochondrial membrane potential” value is “most efficient in decreasing the mitochondrial membrane potential” and the “series of the uncoupling potency (relative drop in membrane potential, concentration dependence)” value is “[Glu1]gA > = gA > [Glu3]gA > [Lys3]gA > [Lys1]gA”. Also, in data set [2] (rat kidney cell culture, TMRE), the “concentration from which mitochondria in cells are depolarized” value is not below 0.1 mg/mL. Further, the “effect of liposomes on induction of BLM current” value in data set [4] is listed as “somewhat slower in the presence of liposomes”. Besides, in data set [5] (100 mV), the “single-channel lifetime (open state duration, single-exponential time constant)” value was determined as 116 ms and the single-channel conductance came to 140 pS. Also, in data set [7] (50 µg/ml peptide, DMEM/F12 without serum, 2 experiments, 10 wells per concentration), the “cell death (MTT)” value was “about 80%”. Further, in data set [7] (medium without serum), the “concentration limit to which certain toxicity is seen (MTT)” value was not below 100 ng/mL.
